The record followed here is patent US20220073536A1 (Rigel Pharmaceuticals, Inc., priority 2003, published 2022).

Counter-ions that a name gives are not always drawn. Where only a bound is given, the exact number is not on record here.

The first experiment has as its system cultured human mast cells (CHMC). Kind of experiment: CHMC low cell density IgE activation: tryptase assay. The format is cell-based. The settings on record: Homo sapiens, Mast cell, low cell density CHMC, IgE activation, tryptase release, 8 pt; read-out: LD Tryptase, CHMC, IgE, 8 pt. An outline of the steps:
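Tryptase release was read from supernatant with a fluorogenic substrate (30 min, room temperature) after anti-IgE challenge of cultured human mast cells (1000–1500 cells/well, low density) for 30 minutes at 37° C.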
In the case of `Cn1nc(N)c2cc(Nc3ncc(F)c(Nc4ccc5c(c4)NC(=O)C(C)(C)O5)n3)ccc21` [Compound 806, N2-(3-Amino-1-methylindazol-5-yl)-N4-(2,2-dimethyl-3-oxo-4H-benz[1,4]oxazin-6-yl)-5-fluoro-2,4-pyrimidinediamine], the IC50 is less than 10 µM.

Take `CC(=O)NCCCn1ncc2cc(Nc3ncc(F)c(Nc4ccc(Cl)c(Cl)c4)n3)ccc21` [Compound 820, N2-[1-[3-(N-Acetylamino)propyl]indazol-5-yl]-N4-(3,4-dichlorophenyl)-5-fluoro-2,4-pyrimidinediamine]: the IC50 was less than 10 µM.

For the compound `CC(=O)NCCCn1ncc2cc(Nc3ncc(F)c(Nc4ccc5c(c4)NC(=O)C(C)(C)O5)n3)ccc21` [Compound 821, N2-[1-[3-(N-Acetylamino)propyl]indazol-5-yl]-N4-(2,2-dimethyl-3-oxo-4H-benz[1,4]oxazin-6-yl)-5-fluoro-2,4-pyrimidinediamine], the IC50 was less than 10 µM.

Turning to `CC(=O)NCCCn1ncc2cc(Nc3ncc(F)c(Nc4ccc5c(n4)NC(=O)C(C)(C)O5)n3)ccc21` [Compound 822, N2-[1-[3-(N-Acetylamino)propyl]indazol-5-yl]-N4-(2,2-dimethyl-3-oxo-4H-5-pyrid[1,4]oxazin-6-yl)-5-fluoro-2,4-pyrimidinediamine], the IC50 was less than 10 µM.

Regarding `COc1ccc(Nc2nc(Nc3ccc4c(cnn4CCCN)c3)ncc2F)cc1Cl` [Compound 823, N2-[1-(3-Aminopropyl)indazol-5-yl]-N4-(3-chloro-4-methoxyphenyl)-5-fluoro-2,4-pyrimidinediamine], the IC50 was less than 10 µM.

For the compound `NCCCn1ncc2cc(Nc3ncc(F)c(Nc4ccc(Cl)c(Cl)c4)n3)ccc21` [Compound 824, N2-[1-(3-Aminopropyl)indazol-5-yl]-N4-(3,4-dichlorophenyl)-5-fluoro-2,4-pyrimidinediamine], the IC50 was less than 10 µM.

Consider `CC1(C)Oc2ccc(Nc3nc(Nc4ccc5c(cnn5CCCN)c4)ncc3F)cc2NC1=O` [Compound 825, N2-[1-(3-Aminopropyl)indazol-5-yl]-N4-(2,2-dimethyl-3-oxo-4H-benz[1,4]oxazin-6-yl)-5-fluoro-2,4-pyrimidinediamine], for which the IC50 is less than 10 µM.

Take `C[C@@H]1Oc2ccc(Nc3nc(Nc4ccc5c(cnn5CCCN)c4)ncc3F)cc2NC1=O` [Compound 826, (S)-N2-[1-(3-Aminopropyl)indazol-5-yl]-5-fluoro-N4-(2-methyl-3-oxo-2H,4H-benz[1,4]oxazin-6-yl)-2,4-pyrimidinediamine]: the IC50 is less than 10 µM.

On to `COc1ccc(Nc2nc(Nc3ccc4c(cnn4CCCO)c3)ncc2F)cc1Cl` [Compound 828, N4-(3-Chloro-4-methoxyphenyl)-5-fluoro-N2-[1-(3-hydroxypropyl)indazol-5-yl]-2,4-pyrimidinediamine Bis p-Toluenesulfonic Acid Salt], for which the IC50 is less than 10 µM.

For `COc1ccc(Nc2nc(Nc3ccc4c(cnn4CCCNS(=O)(=O)C(F)(F)F)c3)ncc2F)cc1Cl` [Compound 840, N4-(3-Chloro-4-methoxyphenyl)-5-fluoro-N2-[1-[3-(N-trifluoromethylsulfonylamino)propyl]indazol-5-yl]-2,4-pyrimidinediamine], the IC50 was less than 10 µM.

As to `O=S(=O)(NCCCn1ncc2cc(Nc3ncc(F)c(Nc4ccc(Cl)c(Cl)c4)n3)ccc21)C(F)(F)F` [Compound 841, N4-(3,4-Dichlorophenyl)-5-fluoro-N2-[1-[3-(N-trifluoromethylsulfonylamino)propyl]indazol-5-yl]-2,4-pyrimidinediamine], the IC50 was less than 10 µM.

On to `CC1(C)Oc2ccc(Nc3nc(Nc4ccc5c(cnn5CCCNS(=O)(=O)C(F)(F)F)c4)ncc3F)cc2NC1=O` [Compound 842, N4-(2,2-Dimethyl-3-oxo-4H-benz[1,4]oxazin-6-yl)-5-fluoro-N2-[1-[3-(N-trifluoromethylsulfonylamino)propyl]indazol-5-yl]-2,4-pyrimidinediamine], for which the IC50 was less than 10 µM.

For the compound `C[C@@H]1Oc2ccc(Nc3nc(Nc4ccc5c(cnn5CCCNS(=O)(=O)C(F)(F)F)c4)ncc3F)cc2NC1=O` [Compound 843, (S)-5-Fluoro-N4-(2-methyl-3-oxo-2H,4H-benz[1,4]oxazin-6-yl)-N2-[1-[3-(N-trifluoromethylsulfonylamino)propyl]indazol-5-yl]-2,4-pyrimidinediamine], the IC50 was less than 10 µM.

For the compound `COc1ccc(Nc2nc(Nc3ccc4c(cnn4CCCNC(=O)C(C)(C)C)c3)ncc2F)cc1Cl` [Compound 848, N4-(3-Chloro-4-methoxyphenyl)-5-fluoro-N2-[1-(3-pivalamidopropyl)indazol-5-yl]-2,4-pyrimidinediamine], the IC50 is less than 10 µM.

`CC(C)(C)C(=O)NCCCn1ncc2cc(Nc3ncc(F)c(Nc4ccc(Cl)c(Cl)c4)n3)ccc21` [Compound 849, N4-(3,4-Dichlorophenyl)-5-fluoro-N2-[1-(3-pivalamidopropyl)indazol-5-yl]-2,4-pyrimidinediamine]: the IC50 is less than 10 µM.

Take `CC(C)(C)C(=O)NCCCn1ncc2cc(Nc3ncc(F)c(Nc4ccc5c(c4)NC(=O)C(C)(C)O5)n3)ccc21` [Compound 850, N4-(2,2-Dimethyl-3-oxo-4H-benz[1,4]oxazin-6-yl)-5-fluoro-N2-[1-(3-pivalamidopropyl)indazol-5-yl]-2,4-pyrimidinediamine]: the IC50 is less than 10 µM.

Turning to `C[C@@H]1Oc2ccc(Nc3nc(Nc4ccc5c(cnn5CCCNC(=O)C(C)(C)C)c4)ncc3F)cc2NC1=O` [Compound 851, 5-Fluoro-(S)-N4-(2-methyl-3-oxo-4H-benz[1,4]oxazin-6-yl)-N2-[1-(3-pivalamidopropyl)indazol-5-yl]-2,4-pyrimidinediamine], the IC50 is less than 10 µM.

Staying with this experiment, now noted: low cell density CHMC, IgE activation, tryptase release, 3 pt; read-out: LD Tryptase, CHMC, IgE, 3 pt.
For `Cn1nc(N)c2cc(Nc3ncc(F)c(Nc4ccc5c(n4)NC(=O)C(C)(C)O5)n3)ccc21` [Compound 837, N2-(3-Amino-1-methylindazol-5-yl)-N4-(2,2-dimethyl-3-oxo-4H-5-pyrid[1,4]oxazin-6-yl)-5-fluoro-2,4-pyrimidinediamine], the IC50 was less than 10 µM.

For `CC1(C)Oc2ccc(Nc3nc(Nc4ccc5c(cnn5CCCO)c4)ncc3F)nc2NC1=O` [Compound 838, N4-(2,2-Dimethyl-3-oxo-4H-5-pyrid[1,4]oxazin-6-yl)-5-fluoro-N2-[1-(3-hydroxypropyl)indazol-5-yl]-2,4-pyrimidinediamine], the IC50 is less than 10 µM.

For the compound `COCCCn1ncc2ccc(Nc3ncc(F)c(Nc4ccc5c(n4)NC(=O)C(C)(C)O5)n3)cc21` [Compound 839, N4-(2,2-Dimethyl-3-oxo-4H-5-pyrid[1,4]oxazin-6-yl)-5-fluoro-N2-[1-(3-methoxypropyl)indazol-6-yl]-2,4-pyrimidinediamine], the IC50 is less than 10 µM.

Still in this experiment, the particulars now being: low cell density CHMC, IgE activation, tryptase release, 8 pt; read-out: LD Tryptase, CHMC, IgE, 8 pt.
In the case of `Cc1nn(C)c2cc(Nc3ncc(F)c(Nc4ccc5c(n4)NC(=O)C(C)(C)O5)n3)ccc12` [Compound 812, N2-(1,3-Dimethylindazol-6-yl)-N4-(2,2-dimethyl-3-oxo-4H-5-pyrid[1,4]oxazin-6-yl)-5-fluoro-2,4-pyrimidinediamine], the IC50 is less than 10 µM.

As to `Cc1n[nH]c2cc(Nc3ncc(F)c(Nc4ccc5c(n4)NC(=O)C(C)(C)O5)n3)ccc12` [Compound 813, N4-(2,2-Dimethyl-3-oxo-4H-5-pyrid[1,4]oxazin-6-yl)-5-fluoro-N2-(3-methyl-1H-indazol-6-yl)-2,4-pyrimidinediamine], the IC50 was less than 10 µM.

`COCCCn1ncc2cc(Nc3ncc(F)c(Nc4ccc5c(n4)NC(=O)C(C)(C)O5)n3)ccc21` [Compound 814, N4-(2,2-Dimethyl-3-oxo-4H-5-pyrid[1,4]oxazin-6-yl)-5-fluoro-N2-[1-(3-methoxypropyl)indazol-5-yl]-2,4-pyrimidinediamine]: the IC50 was less than 10 µM.

As to `COc1ccc(Nc2nc(Nc3ccc4c(cnn4CCCN4C(=O)c5ccccc5C4=O)c3)ncc2F)cc1Cl` [Compound 815, N4-(3-Chloro-4-methoxyphenyl)-5-fluoro-N2-[1-[3-(N-phthalimidopropyl)]indazol-5-yl]-2,4-pyrimidinediamine], the IC50 is less than 10 µM.

Regarding `O=C1c2ccccc2C(=O)N1CCCn1ncc2cc(Nc3ncc(F)c(Nc4ccc(Cl)c(Cl)c4)n3)ccc21` [Compound 816, N4-(3,4-Dichlorophenyl)-5-fluoro-N2-[1-[3-(N-phthalimidopropyl)]indazol-5-yl]-2,4-pyrimidinediamine], the IC50 is more than 10 µM.

Regarding `CC1(C)Oc2ccc(Nc3nc(Nc4ccc5c(cnn5CCCN5C(=O)c6ccccc6C5=O)c4)ncc3F)cc2NC1=O` [Compound 817, N4-(2,2-Dimethyl-3-oxo-4H-benz[1,4]oxazin-6-yl)-5-fluoro-N2-[1-[3-(N-phthalimidopropyl)]indazol-5-yl]-2,4-pyrimidinediamine], the IC50 is less than 10 µM.

For the compound `C[C@@H]1Oc2ccc(Nc3nc(Nc4ccc5c(cnn5CCCN5C(=O)c6ccccc6C5=O)c4)ncc3F)cc2NC1=O` [Compound 818, (S)-5-Fluoro-N4-(2-methyl-3-oxo-2H,4H-benz[1,4]oxazin-6-yl)-N2-[1-[3-(N-phthalimidopropyl)]indazol-5-yl]-2,4-pyrimidinediamine], the IC50 was less than 10 µM.

`Cn1nc(N)c2cc(Nc3ncc(F)c(Nc4ccc5c(n4)NC(=O)C(C)(C)O5)n3)ccc21` [Compound 837, N2-(3-Amino-1-methylindazol-5-yl)-N4-(2,2-dimethyl-3-oxo-4H-5-pyrid[1,4]oxazin-6-yl)-5-fluoro-2,4-pyrimidinediamine]: the IC50 was less than 10 µM.

For the compound `CC1(C)Oc2ccc(Nc3nc(Nc4ccc5c(cnn5CCCO)c4)ncc3F)nc2NC1=O` [Compound 838, N4-(2,2-Dimethyl-3-oxo-4H-5-pyrid[1,4]oxazin-6-yl)-5-fluoro-N2-[1-(3-hydroxypropyl)indazol-5-yl]-2,4-pyrimidinediamine], the IC50 is less than 10 µM.

`COCCCn1ncc2ccc(Nc3ncc(F)c(Nc4ccc5c(n4)NC(=O)C(C)(C)O5)n3)cc21` [Compound 839, N4-(2,2-Dimethyl-3-oxo-4H-5-pyrid[1,4]oxazin-6-yl)-5-fluoro-N2-[1-(3-methoxypropyl)indazol-6-yl]-2,4-pyrimidinediamine]: the IC50 is less than 10 µM.

Consider `CC1(C)Oc2ccc(Nc3nc(Nc4ccc5c(cnn5CCCNS(=O)(=O)C(F)(F)F)c4)ncc3F)nc2NC1=O` [Compound 844, N4-(2,2-Dimethyl-3-oxo-4H-5-pyrid[1,4]oxazin-6-yl)-5-fluoro-N2-[1-[3-(N-trifluoromethylsulfonylamino)propyl]indazol-5-yl]-2,4-pyrimidinediamine], for which the IC50 is more than 10 µM.

For `CCOP(=O)(NCCCn1ncc2cc(Nc3ncc(F)c(Nc4ccc(OC)c(Cl)c4)n3)ccc21)OCC` [Compound 847, N4-(3-Chloro-4-methoxyphenyl)-N2-[1-(3-(diethylphosphonamido)propyl]indazol-5-yl]-5-fluoro-2,4-pyrimidinediamine], the IC50 was less than 10 µM.
